Data set [1] has as its system HER2 overexpressing cells (SK-BR-3, BT-474, N87). The data set is described as follows: In vitro drug combinations with PB4188 (checkerboard titrations, isobolograms). In kind it is cell-based. The note with it: HRG in matrigel or HRG stress concentrations. How it is done: Moreover, combination with chemotherapeutic drugs and cyclin inhibitors were tested. Combinations were tested on HER2 overexpressing cells growing in the presence of HRG in matrigel (SK-BR-3 and BT-474) or in the presence of HRG stress concentrations (N87 and SK-BR-3 as described in proliferation assays). The inhibitory effect of drug combinations was tested by imaging or by measuring proliferation using Alamar Blue as described herein before. […] The extent of growth inhibition obtained with each combination was calculated. […] The inhibition values of the combination experiments were used by CHALICE™ Analyzer software to generate the isobolograms.

Data set [2] deals with intracranial ST1360B PDX tumors.
Text: Mice carrying ST1360B tumors were supplemented with estrogen following tumor implantation. The tumor was washed with PBS and trimmed for residual connective tissues at the surface. The tumor was cut into small pieces and digested with Accutase and Collagenase IV to yield a suspension of single cells. The digestion was stopped by addition of media containing fetal bovine serum and the cell suspension was filtered through a 100 µm filter, washed in PBS and resuspended in PBS. The viability of the tumor cells was checked by trypan blue staining and the final concentration was 18 million viable cells/mL. The viability of total cells was greater than 80%. There was no differentiation between stromal or tumor cells and the solutions do also contain some cell debris. […] The cells were kept on ice until inoculation.
Mice were anaesthetized by hypnorm/midazolam (1 ml/100 g body weight) and placed in a stereotactic frame for fixation of the head. A longitudinal incision was made in the scalp exposing the calvarium. A hole was drilled in the skull 1.5 mm right of the sutura saggitalis and 0.5 mm posterior to the bregma using a microdrill. Ten µl of the cell suspension (180.000 cells) was injected at a depth of 2-2.5 mm at a rate of 60 nl/sec using a 100 µl syringe with a 25-gauge needle placed in a micro infusion pump. The needle was left for 3 minutes before being withdrawn. Bupivacaine (0.2 mg/100 g bodyweight) and Lidocaine (1 mg/100 g body weight) were administrated in the incision site for local anesthetic and the skin was closed with a suture. The mice were ear punched for identification and returned to their cages where they were monitored until fully recovered from the anesthesia. The mice were monitored at least twice per week (weight and clinical signs) after tumor inoculation and more often if clinical signs or weight loss was present.
Tumor development was monitored bi-weekly by T2-weighted MR imaging (axial and coronal planes). The first imaging session was 19 days after tumor inoculation. The animals were anesthetized during the MR imaging sessions (sevoflurane, 2-4% in ambient air supplemented with 100% O2 at approximately 4:1 ratio). Enrolment into study was based on two pathological MR scans showing tumor growth and a tumor volume of about 10-20 mm^3. Mice that meet the enrolment criteria were randomized into one of four groups. The first 32 mice that meet the inclusion criteria were enrolled into the study. Mice were randomized so all groups presented with the same mean tumor volume at treatment initiation.
Drugs were diluted in sterile saline before each dosing. Mice were placed under a heating lamp for approximately 5-10 minutes before injection of the test compound to make the procedure as quick and easy as possible. The mouse was placed on a tail restrain box and the test compound was dosed in the lateral tail vein as a single intravenous (i.v.) bolus dose. The dosing volume was 5.0mL/kg.
Tumor growth were monitored bi-weekly by T2-weighted MR imaging (axial and coronal planes) for the first two weeks after therapy initiation and weekly until 6 weeks after therapy. The animals were anesthetized during the MR imaging sessions (sevoflurane, 2-4% in ambient air supplemented with 100% O2 at approximately 4:1 ratio).
The brain with tumor was resected and preserved in 4% formaldehyde for 24-48 hours and transferred to 70% ethanol. The fixative: tissue ratio was at least 20:1.
Tumor volumes were measured on the images by drawing region of interests (ROIs) on the individual slices and calculating the volume of the ROIs.

`CCOc1cc2ncc(C#N)c(Nc3ccc(OCc4ccccn4)c(Cl)c3)c2cc1NC(=O)/C=C/CN(C)C` [neratinib]: in data set [1], the “Drug combination with PB4188 (isobologram analysis)” value is given as “synergistic”.
The same measure, in the same setting: to `CS(=O)(=O)CCNCc1ccc(-c2ccc3ncnc(Nc4ccc(OCc5cccc(F)c5)c(Cl)c4)c3c2)o1` [lapatinib] belongs “synergistic”.
Same read-out and setting: for `NC1(c2ccc(-c3nc4ccn5c(=O)[nH]nc5c4cc3-c3ccccc3)cc2)CCC1` [MK-2206] the value was “synergistic”.
Turning to `Cc1nc(NC(=O)N2CCC[C@H]2C(N)=O)sc1-c1ccnc(C(C)(C)C(F)(F)F)c1` [BYL719], the “Drug combination with PB4188 (isobologram analysis)” value in data set [1] is given as “synergistic”.
For T-DM1, the “Tumor growth by T2-weighted MRI” value in data set [2] (compared to vehicle treated mice) is on record as “inhibited”. Moreover, the “mean tumor volume 10 days post therapy” value in data set [2] (compared to vehicle treated mice, p<0.05, Tukey) is “significantly smaller compared to vehicle treated mice”. The “Brain edema score day 3” value in data set [2] (individual mouse, scale 0-4 (0 no, 4 massive brain edema), day 3 post initiation of therapy) is 0. The median survival in data set [2] (post therapy initiation, T-DM1 10 mg/kg 4x qwk i.v., MCLA-128 25 mg/kg 4x twice wk i.v., vehicle 13 days) was found to be 19.5 days.
Turning to `CC(=O)O[C@H]1C(=O)[C@@]2(C)[C@H]([C@H](OC(=O)c3ccccc3)[C@]3(O)C[C@H](OC(=O)[C@H](O)[C@@H](NC(=O)c4ccccc4)c4ccccc4)C(C)=C1C3(C)C)[C@]1(OC(C)=O)CO[C@@H]1C[C@@H]2O` [paclitaxel], the “Drug combination with PB4188 (isobologram analysis)” value in data set [1] is on record as “synergistic”.
Still for that read-out and setting: for `CO[C@H]1C[C@@H]2CC[C@@H](C)[C@@](O)(O2)C(=O)C(=O)N2CCCC[C@H]2C(=O)O[C@H]([C@H](C)C[C@@H]2CC[C@@H](OCCO)[C@H](OC)C2)CC(=O)[C@H](C)/C=C(\C)[C@@H](O)[C@@H](OC)C(=O)[C@H](C)C[C@H](C)/C=C/C=C/C=C/1C` [everolimus] the value was “synergistic”; for `O=C(CCCCCCC(=O)Nc1ccccc1)NO` [vorinostat], “synergistic”.

Values taken from EP4810518A2, “ANTIBODY THAT BINDS ERBB-2 AND ERBB-3” (Merus B.V., priority 2017, dated 2018).
